Measured values as given in paper PMC10584170, “Machine learning-based phenotypic imaging to characterise the targetable biology of Plasmodium falciparum male gametocytes for the development of transmission-blocking antimalarials” (PLOS Pathogens, 2023).

What was measured:
[1] = system: P. falciparum female gametocytes; assay: P. falciparum Dual Gamete Formation Assay (PfDGFA), female readout (Pfs25-positive female gametes); format: cell-based, Plasmodium falciparum NF54; details: for Average inhibition female (%): average of replicates; for % inhibition female (individual replicates) R1: replicate R1; for % inhibition female (individual replicates) R3: replicate R3; for % inhibition female (individual replicates) R4: replicate R4
In short: (§1)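 Read-outs are automated image counts of exflagellation centres (brightfield, 10 frames over 1 s) and Pfs25-positive female gametes (Cy3 fluorescence).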

[2] = system: P. falciparum male gametocytes; assay: P. falciparum Dual Gamete Formation Assay (PfDGFA), male readout (exflagellation); format: cell-based, Plasmodium falciparum NF54; details: for Average inhibition male (%): average of replicates; for % inhibition male (individual replicates) R1: replicate R1; for % inhibition male (individual replicates) R3: replicate R3; for % inhibition male (individual replicates) R4: replicate R4; for Activity: hit = >50% inhibition in male or female readout in at least 3 replicates, 0 = no class assigned
In short: as §1

[3] = 2µM, 24h preincubation with gametocytes prior to induction of gametogenesis
[4] = 2µM, 24h preincubation, hits selected on >50% inhibition in the female readout across replicates
[5] = 2µM, 24h preincubation, hits selected on >50% inhibition in the male readout across replicates
[6] = PfDGFA at 2µM, 24h preincubation
[7] = 2µM, 24h preincubation, number of replicates with >50% inhibition in the female readout
[8] = 2µM, 24h preincubation, number of replicates with >50% inhibition in the male readout
[9] = PfDGFA at 2µM, 24h preincubation with gametocytes
[10] = number of replicates with >50% inhibition in the female readout, 2µM
[11] = number of replicates with >50% inhibition in the male readout, 2µM
[12] = PfDGFA at 2µM, 24h preincubation with gametocytes prior to induction of gametogenesis
[13] = 2µM, 24h preincubation with gametocytes

CCc1nc(N)nc(N)c1-c1cccc(Cl)c1 [TCMDC-137371]
Average inhibition female (%) [1, 3]: 4.1%
% inhibition female (individual replicates) R1 [1, 3]: 14.2%
% inhibition female (individual replicates) R3 [1, 3]: -6.6%
% inhibition female (individual replicates) R4 [1, 3]: 5.2%
HitlevelF [1, 4]: 0
Average inhibition male (%) [2, 3]: -6.5%
% inhibition male (individual replicates) R1 [2, 3]: 19.6%
% inhibition male (individual replicates) R3 [2, 3]: -24.6%
% inhibition male (individual replicates) R4 [2, 3]: -25.1%
HitlevelM [2, 5]: 0
Activity [2, 6]: 0

CCCc1cc(OC)c(CC2c3cc(O)c(Cl)cc3C(c3ccccc3)CN2C)cc1OC.Cl (stereo not shown) [TCMDC-137432]
Average inhibition female (%) [1, 3]: 7.6%
% inhibition female (individual replicates) R1 [1, 3]: -2.1%
% inhibition female (individual replicates) R3 [1, 3]: 40.4%
% inhibition female (individual replicates) R4 [1, 3]: -8.9%
HitlevelF [1, 4]: 0
Average inhibition male (%) [2, 3]: 3.7%
% inhibition male (individual replicates) R1 [2, 3]: 2.4%
% inhibition male (individual replicates) R3 [2, 3]: -26.9%
% inhibition male (individual replicates) R4 [2, 3]: 27.9%
HitlevelM [2, 5]: 0
Activity [2, 6]: 0

Cl.N=C(NCCCc1ccccc1)c1cccc(C(=N)NCCCc2ccccc2)n1 [TCMDC-137453]
Average inhibition female (%) [1, 3]: 26.7%
% inhibition female (individual replicates) R1 [1, 3]: 21.1%
% inhibition female (individual replicates) R3 [1, 3]: 29.3%
% inhibition female (individual replicates) R4 [1, 3]: 27.4%
HitlevelF [1, 7]: 0
Average inhibition male (%) [2, 3]: 15.3%
% inhibition male (individual replicates) R1 [2, 3]: 11.4%
% inhibition male (individual replicates) R3 [2, 3]: -5.0%
% inhibition male (individual replicates) R4 [2, 3]: 33.6%
HitlevelM [2, 8]: 0

CC(CNC(=N)c1cccc(C(=N)NCC(C)Oc2cccc(C3CCCCC3)c2)n1)Oc1cccc(C2CCCCC2)c1.Cl (stereo not shown) [TCMDC-137455]
Average inhibition female (%) [1, 9]: 40.6%
% inhibition female (individual replicates) R1 [1, 9]: 53.6%
% inhibition female (individual replicates) R3 [1, 9]: 30.8%
% inhibition female (individual replicates) R4 [1, 9]: 44.6%
HitlevelF [1, 10]: 1
Average inhibition male (%) [2, 9]: 81.3%
% inhibition male (individual replicates) R1 [2, 9]: 90.7%
% inhibition male (individual replicates) R3 [2, 9]: 87.0%
% inhibition male (individual replicates) R4 [2, 9]: 101.3%
HitlevelM [2, 11]: 3

N=C(NCC1CC1c1ccccc1)c1cccc(C(=N)NCC2CC2c2ccccc2)n1 (stereo not shown) [TCMDC-137456]
Average inhibition female (%) [1, 9]: 33.5%
% inhibition female (individual replicates) R1 [1, 9]: 27.8%
% inhibition female (individual replicates) R3 [1, 9]: 24.0%
% inhibition female (individual replicates) R4 [1, 9]: 33.0%
HitlevelF [1, 10]: 0
Average inhibition male (%) [2, 9]: 66.3%
% inhibition male (individual replicates) R1 [2, 9]: 75.4%
% inhibition male (individual replicates) R3 [2, 9]: 23.0%
% inhibition male (individual replicates) R4 [2, 9]: 81.6%
HitlevelM [2, 11]: 3

CN1CCN(CCCCNc2c3ccccc3nc3ccccc23)CC1 [TCMDC-137479]
Average inhibition female (%) [1, 3]: 21.2%
% inhibition female (individual replicates) R1 [1, 3]: 27.6%
% inhibition female (individual replicates) R3 [1, 3]: -3.0%
% inhibition female (individual replicates) R4 [1, 3]: 19.8%
HitlevelF [1, 7]: 0
Average inhibition male (%) [2, 3]: 37.9%
% inhibition male (individual replicates) R1 [2, 3]: 56.6%
% inhibition male (individual replicates) R3 [2, 3]: -27.6%
% inhibition male (individual replicates) R4 [2, 3]: 45.6%
HitlevelM [2, 8]: 2

CCC(=C(CC)c1ccc(O)c(CNC2CCCCC2)c1)c1ccc(O)c(CNC2CCCCC2)c1.Cl [TCMDC-137481]
Average inhibition female (%) [1, 3]: 5.6%
% inhibition female (individual replicates) R1 [1, 3]: 2.3%
% inhibition female (individual replicates) R3 [1, 3]: 13.0%
% inhibition female (individual replicates) R4 [1, 3]: 6.2%
HitlevelF [1, 4]: 0
Average inhibition male (%) [2, 3]: 1.2%
% inhibition male (individual replicates) R1 [2, 3]: -0.3%
% inhibition male (individual replicates) R4 [2, 3]: 0.8%
HitlevelM [2, 5]: 0
Activity [2, 6]: 0

Nc1nc(Cc2ccc(Cl)cc2)nc(Cc2ccc(Cl)cc2)n1 [TCMDC-137497]
% inhibition female (individual replicates) R1 [1, 12]: -4.6%
% inhibition female (individual replicates) R3 [1, 12]: -30.4%
% inhibition female (individual replicates) R4 [1, 12]: 8.0%
Average inhibition female (%) [1, 6]: -6.5%
% inhibition male (individual replicates) R1 [2, 12]: -13.6%
% inhibition male (individual replicates) R3 [2, 12]: -49.6%
% inhibition male (individual replicates) R4 [2, 12]: -34.5%
Average inhibition male (%) [2, 6]: -26.4%

COc1ccc(O)cc1Cc1cnc2nc(N)nc(N)c2c1C [TCMDC-137498]
Average inhibition female (%) [1, 3]: 6.7%
% inhibition female (individual replicates) R1 [1, 3]: 14.0%
% inhibition female (individual replicates) R3 [1, 3]: 17.6%
% inhibition female (individual replicates) R4 [1, 3]: 8.3%
HitlevelF [1, 4]: 0
Average inhibition male (%) [2, 3]: -10.8%
% inhibition male (individual replicates) R1 [2, 3]: 7.6%
% inhibition male (individual replicates) R3 [2, 3]: -15.7%
% inhibition male (individual replicates) R4 [2, 3]: -40.5%
HitlevelM [2, 5]: 0
Activity [2, 6]: 0

Clc1ccc(CNCCCCCCNCc2ccc(Cl)cc2)cc1.O=C(O)c1ccc2ccccc2c1O [TCMDC-137500]
Average inhibition female (%) [1, 3]: 9.2%
% inhibition female (individual replicates) R1 [1, 3]: 13.6%
% inhibition female (individual replicates) R3 [1, 3]: -5.3%
% inhibition female (individual replicates) R4 [1, 3]: 22.1%
HitlevelF [1, 7]: 0
Average inhibition male (%) [2, 3]: 60.2%
% inhibition male (individual replicates) R1 [2, 3]: 69.1%
% inhibition male (individual replicates) R3 [2, 3]: 26.6%
% inhibition male (individual replicates) R4 [2, 3]: 76.2%
HitlevelM [2, 8]: 3

CCCN1CCN(CCNc2c3ccccc3nc3ccccc23)CC1 [TCMDC-137549]
Average inhibition female (%) [1, 13]: 13.4%
% inhibition female (individual replicates) R1 [1, 13]: 14.9%
% inhibition female (individual replicates) R3 [1, 13]: 20.2%
% inhibition female (individual replicates) R4 [1, 13]: 28.7%
Average inhibition male (%) [2, 13]: 95.7%
% inhibition male (individual replicates) R1 [2, 13]: 96.4%
% inhibition male (individual replicates) R3 [2, 13]: 92.4%
% inhibition male (individual replicates) R4 [2, 13]: 99.6%

Br.CCCCCCCNCCNc1cc(C)nc2ccccc12 [TCMDC-137556]
Average inhibition female (%) [1, 3]: 18.1%
% inhibition female (individual replicates) R1 [1, 3]: 25.7%
% inhibition female (individual replicates) R3 [1, 3]: 0.5%
% inhibition female (individual replicates) R4 [1, 3]: 18.7%
HitlevelF [1, 7]: 0
Average inhibition male (%) [2, 3]: 11.5%
% inhibition male (individual replicates) R1 [2, 3]: 12.4%
% inhibition male (individual replicates) R3 [2, 3]: 4.0%
% inhibition male (individual replicates) R4 [2, 3]: 8.2%
HitlevelM [2, 8]: 0

COc1cccc2c(O)c(CNC3CCCCC3)ccc12.Cl [TCMDC-137595]
% inhibition female (individual replicates) R1 [1, 12]: -8.7%
% inhibition female (individual replicates) R3 [1, 12]: -13.9%
% inhibition female (individual replicates) R4 [1, 12]: -3.5%
Average inhibition female (%) [1, 6]: -7.6%
% inhibition male (individual replicates) R1 [2, 12]: -3.5%
% inhibition male (individual replicates) R3 [2, 12]: 3.4%
% inhibition male (individual replicates) R4 [2, 12]: 4.2%
Average inhibition male (%) [2, 6]: 3.3%

COc1ccc(CNCCCCCCNCc2ccc(OC)c3ccccc23)c2ccccc12.Cl [TCMDC-137631]
Average inhibition female (%) [1, 9]: 47.3%
% inhibition female (individual replicates) R1 [1, 9]: 36.3%
% inhibition female (individual replicates) R3 [1, 9]: 33.7%
% inhibition female (individual replicates) R4 [1, 9]: 34.7%
HitlevelF [1, 10]: 1
Average inhibition male (%) [2, 9]: 83.3%
% inhibition male (individual replicates) R1 [2, 9]: 71.0%
% inhibition male (individual replicates) R3 [2, 9]: 73.6%
% inhibition male (individual replicates) R4 [2, 9]: 100.9%
HitlevelM [2, 11]: 4

Cc1nc2nc(N)nc(N)c2c(C)c1Cc1cccc(C#N)c1.Cl [TCMDC-137646]
% inhibition female (individual replicates) R1 [1, 12]: -3.5%
% inhibition female (individual replicates) R3 [1, 12]: -14.6%
% inhibition female (individual replicates) R4 [1, 12]: 5.5%
Average inhibition female (%) [1, 6]: -8.2%
% inhibition male (individual replicates) R1 [2, 12]: 10.9%
% inhibition male (individual replicates) R3 [2, 12]: 34.4%
% inhibition male (individual replicates) R4 [2, 12]: 21.2%
Average inhibition male (%) [2, 6]: 19.8%

Cc1ccc(Cc2c(C)nc3nc(N)nc(N)c3c2C)cc1.Cl [TCMDC-137657]
% inhibition female (individual replicates) R1 [1, 12]: -6.6%
% inhibition female (individual replicates) R3 [1, 12]: 8.8%
% inhibition female (individual replicates) R4 [1, 12]: -7.7%
Average inhibition female (%) [1, 6]: -3.5%
% inhibition male (individual replicates) R1 [2, 12]: 13.2%
% inhibition male (individual replicates) R3 [2, 12]: 20.3%
% inhibition male (individual replicates) R4 [2, 12]: 13.4%
Average inhibition male (%) [2, 6]: 14.9%

Cc1nc2nc(N)nc(N)c2c(C)c1Cc1ccccc1Cl.Cl [TCMDC-137668]
Average inhibition female (%) [1, 3]: 9.8%
% inhibition female (individual replicates) R1 [1, 3]: 18.7%
% inhibition female (individual replicates) R3 [1, 3]: -14.7%
% inhibition female (individual replicates) R4 [1, 3]: 32.6%
HitlevelF [1, 4]: 0
Average inhibition male (%) [2, 3]: 0.635%
% inhibition male (individual replicates) R1 [2, 3]: 24.9%
% inhibition male (individual replicates) R3 [2, 3]: -5.5%
% inhibition male (individual replicates) R4 [2, 3]: -27.1%
HitlevelM [2, 5]: 0
Activity [2, 6]: 0

CC(C)N(Cc1cnc2nc(N)nc(N)c2n1)c1ccc(Cl)c(Cl)c1 [TCMDC-137675]
% inhibition female (individual replicates) R1 [1, 12]: 8.3%
% inhibition female (individual replicates) R3 [1, 12]: -2.9%
% inhibition female (individual replicates) R4 [1, 12]: 6.8%
Average inhibition female (%) [1, 6]: 1.4%
% inhibition male (individual replicates) R1 [2, 12]: 8.1%
% inhibition male (individual replicates) R3 [2, 12]: 1.6%
% inhibition male (individual replicates) R4 [2, 12]: -34.5%
Average inhibition male (%) [2, 6]: -1.6%
